Data as given in patent publication US6596900B2, “Fused bicyclic or tricyclic amino acids” (Pfizer Inc, priority 2001, dated 2003).

Key:
[1] = target: T1, α2δ subunit derived from porcine brain tissue (Sus scrofa, UniProt A0A287BIN3); experiment: radioligand binding assay using [3H]gabapentin and the α2δ subunit; conditions: [3H]gabapentin radioligand binding assay described herein
T1 construct: the α2δ subunit derived from porcine brain tissue; from tissue; host or cells: porcine brain tissue
Excerpt: wherein n is an integer of from 1 to 4, where there are stereocentres, each center may be independently R or S, preferred compounds being those of Formulae I-IV above in which n is an integer of from 2 to 4. The compounds are disclosed as being useful in treating a variety of disorders including epilepsy, faintness attacks, hypokinesia, cranial disorders, neurodegenerative disorders, depression, anxiety, panic, pain, neuropathological disorders, and sleep disorders. Certain of the compounds disclosed in that patent have high activity as measured in a radioligand binding assay using [^3H]gabapentin and the α2δ subunit derived from porcine brain tissue (Gee N. S., Brown J. P., Dissanayake V. U. K., Offord J., Thurlow R., Woodruff G. N., J. Biol. Chem., 1996;271:[…]). Results for some of the compounds are set out in the following table:
The biological activity of the compounds of the invention may be measured in a radioligand binding assay using [^3H]gabapentin and the α2δ subunit derived from porcine brain tissue (Gee N. S., Brown J. P., Dissanayake V. U. K., Offord J., Thurlow R., Woodruff G. N., ADVANCEADVANCE J. Biol. Chem., 1996;271:5879-[…]). Results may be expressed in terms of μM or nM α2δ binding affinity.

[2] = target: T1, α2δ subunit derived from porcine brain tissue; conditions: [3H]gabapentin radioligand; compounds of WO0128978 (prior application); cited from earlier work

T1 sequence (A0A287BIN3 entry or part of it): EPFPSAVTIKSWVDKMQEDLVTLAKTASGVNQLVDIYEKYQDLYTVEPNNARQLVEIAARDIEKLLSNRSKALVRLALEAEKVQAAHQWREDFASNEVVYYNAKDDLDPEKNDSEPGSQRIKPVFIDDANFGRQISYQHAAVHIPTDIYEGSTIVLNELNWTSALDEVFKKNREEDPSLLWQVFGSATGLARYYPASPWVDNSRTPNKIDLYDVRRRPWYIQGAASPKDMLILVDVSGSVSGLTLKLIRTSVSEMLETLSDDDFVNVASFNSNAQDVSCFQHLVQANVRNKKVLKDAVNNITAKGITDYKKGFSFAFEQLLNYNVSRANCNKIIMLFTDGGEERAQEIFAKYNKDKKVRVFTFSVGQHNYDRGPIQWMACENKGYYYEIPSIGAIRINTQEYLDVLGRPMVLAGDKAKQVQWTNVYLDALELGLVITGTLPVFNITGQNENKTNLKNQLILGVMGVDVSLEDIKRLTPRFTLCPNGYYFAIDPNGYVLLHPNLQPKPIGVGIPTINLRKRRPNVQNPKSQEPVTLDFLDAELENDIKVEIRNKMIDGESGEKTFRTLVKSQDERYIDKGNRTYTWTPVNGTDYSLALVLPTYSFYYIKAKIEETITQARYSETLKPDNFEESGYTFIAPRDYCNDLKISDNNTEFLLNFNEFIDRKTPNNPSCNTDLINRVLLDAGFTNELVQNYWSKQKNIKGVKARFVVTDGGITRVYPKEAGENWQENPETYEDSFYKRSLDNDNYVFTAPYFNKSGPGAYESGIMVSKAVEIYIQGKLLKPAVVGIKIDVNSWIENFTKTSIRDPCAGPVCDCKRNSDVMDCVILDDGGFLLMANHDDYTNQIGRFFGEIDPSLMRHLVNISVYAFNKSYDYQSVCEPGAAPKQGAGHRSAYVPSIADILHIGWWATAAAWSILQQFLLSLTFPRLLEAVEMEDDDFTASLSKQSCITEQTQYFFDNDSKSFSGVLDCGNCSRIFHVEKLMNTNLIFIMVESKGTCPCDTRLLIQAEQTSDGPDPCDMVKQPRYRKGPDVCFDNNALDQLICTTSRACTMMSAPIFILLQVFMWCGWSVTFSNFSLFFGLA

Row | Compound | melting point | binding affinities [1] | α2δ binding affinity [2]
1 | Cl.NC[C@]1(CC(=O)O)C[C@H]2CCC[C@H]21 [Example 1, [(1R,5R,6S)-6-(Aminomethyl)bicyclo[3.2.0]hept-6-yl]acetic acid hydrochloride] | 198 °C | 46.8 nM | 
2 | NC[C@@]1(CC(=O)O)C[C@H]2CC[C@H]2C1 [((1α, 3β, 5α)(3-Aminomethyl-bicyclo[3.2.0]hept-3-yl)-acetic acid] |  |  | 0.332 µM
3 | Cl.NC[C@]1(CC(=O)O)C[C@H]2CCCC[C@H]21 [Example 4, [(1R,6R,7S)-7-(Aminomethyl)bicyclo[4.2.0]oct-7-yl]acetic acid hydrochloride] |  | 600 nM | 
4 | NC[C@]1(CC(=O)O)C[C@H]2CC[C@H]2C1 [(1α, 3α, 5α)(3-Aminomethyl-bicyclo[3.2.0]hept-3-yl)-acetic acid] |  |  | 0.038 µM
5 | NCC1(CC(=O)O)C[C@H]2CC[C@@H]2C1 (racemic) [(+/−)-(1α, 5β)(3-Aminomethyl-bicyclo[3.2.0]hept-3-yl)-acetic acid] |  |  | 2.86 µM
